Assay results from ChEMBL document CHEMBL1137521, “In vivo growth inhibitory and anti-angiogenic effects of synthetic novel dienone cyclopropoxy curcumin analogs on mouse Ehrlich ascites tumor” (2007).
Calls of active or inactive are those of the source. The calls are words filed in the database; no cut-off is given here.

Tests used:
Mus musculus [1] = assay: Growth inhibition of Swiss Albino mouse bearing EAT cells assessed as increase in median survival time at 100 mg/kg, ip; type: functional; details: route intraperitoneal
Mus musculus [2] = assay: Growth inhibition of Swiss Albino mouse bearing EAT cells assessed as increase in life span at 100 mg/kg, ip administered on day 7 after tumor inoculation; type: functional; set-up: scale not given: the % may be the effect or the level left; details: route intraperitoneal
Mus musculus [3] = assay: Growth inhibition of Swiss Albino mouse bearing EAT cells assessed as increase in life span at 100 mg/kg, ip; type: functional; set-up: scale not given: the % may be the effect or the level left; details: route intraperitoneal
Mus musculus [4] = assay: Growth inhibition of Swiss Albino mouse bearing EAT cells assessed as decrease in ascites volume at 100 mg/kg, ip relative to control; type: functional, organism-based; set-up: dose 100 mg/kg
Mus musculus [5] = assay: Growth inhibition of Swiss Albino mouse bearing EAT cells assessed as reduction in cell numbers at 100 mg/kg, ip relative to control; type: functional, organism-based; set-up: dose 100 mg/kg
Mus musculus [6] = assay: Antiangiogenic effect in Swiss Albino mouse bearing EAT cells assessed as inhibition of blood vessel formation in at 100 mg/kg, ip; type: functional; details: route intraperitoneal
Mus musculus [7] = organism: Mus musculus; assay: Antiangiogenic effect in Swiss Albino mouse bearing EAT cells assessed as decrease in microvessel density by CAM assay; type: functional, organism-based
Mus musculus [8] = assay: Growth inhibition of Swiss Albino mouse bearing EAT cells assessed as increase in life span at 100 mg/kg, ip administered on day 9 after tumor inoculation; type: functional; set-up: scale not given: the % may be the effect or the level left; details: route intraperitoneal
Mus musculus [9] = assay: Growth inhibition of Swiss Albino mouse bearing EAT cells assessed as increase in life span at 100 mg/kg, ip administered on day 11 after tumor inoculation; type: functional; set-up: scale not given: the % may be the effect or the level left; details: route intraperitoneal

SMILES	Survival (Mus musculus [1]) [days]	Activity (Mus musculus [2]) [%]	Activity (Mus musculus [3]) [%]	Activity (Mus musculus [4])	Activity (Mus musculus [5])	Activity (Mus musculus [6])	Activity (Mus musculus [7])	Activity (Mus musculus [8]) [%]	Activity (Mus musculus [9]) [%]
COc1cc(/C=C/C(=O)/C=C/c2ccc(OC3CC3)c(OC)c2)ccc1OC1CC1	26.8	48.8	48.8	Active	Active	3	Active		
O=C(/C=C/c1ccc(OC2CC2)cc1)/C=C/c1ccc(OC2CC2)cc1	24.2		34.4	Active	Active	4.2	Active	34.4	
Cc1cc(/C=C/C(=O)/C=C/c2ccc(OC3CC3)c(C)c2)ccc1OC1CC1	23.2		28.8	Active	Active	4.4	Active		28.8
COc1cc(/C=C/C(=O)/C=C/c2cc(OC)c(OC3CC3)c(OC)c2)cc(OC)c1OC1CC1	32		77.7	Active	Active	2.8	Active		
